A word on the pKd: it is −log10 of the Kd, conventionally taken in molar units. One may read the pKi as −log10 of the Ki, conventionally taken in molar units. As a reminder, the pIC50 is −log10 of the IC50, conventionally taken in molar units.

Data on one compound can be found in patent US6723710B2, “Compositions for inhibiting arginase activity” (The Trustees of the University of Pennsylvania, priority 1997, dated 2004).

Experiment [1] concerns the target T1, arginase (Rattus norvegicus, UniProt P07824).
T1 sequence (P07824 1-323): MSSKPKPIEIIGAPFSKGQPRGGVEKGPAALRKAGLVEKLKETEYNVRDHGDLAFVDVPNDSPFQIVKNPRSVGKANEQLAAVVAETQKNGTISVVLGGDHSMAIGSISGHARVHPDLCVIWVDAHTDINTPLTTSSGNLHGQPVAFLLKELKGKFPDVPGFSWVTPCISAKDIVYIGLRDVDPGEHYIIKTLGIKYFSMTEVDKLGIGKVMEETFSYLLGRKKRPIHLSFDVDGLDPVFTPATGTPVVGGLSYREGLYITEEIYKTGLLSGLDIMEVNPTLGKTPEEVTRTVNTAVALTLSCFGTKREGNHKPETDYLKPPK
The experiment is described as follows: biochemical. Particulars: Kd from competition binding experiments using N-hydroxyarginine, pH 7.5 and pH 9.0.
From the text: Additional evidence for high affinity binding of arginase and ABHA was derived from competition binding experiments using ABHA and N-hydroxyarginine, as monitored by fluorescence spectroscopy. Addition of N-hydroxyarginine to a solution of arginase results in a significant decrease in intrinsic protein fluorescence at 327 nanometers.

Experiment [2] has as its target liver arginase activity. Kind of experiment: arginase activity in liver homogenate. The class given is biochemical, opossum. The text has this: (§1) Tissue samples of the opossum internal anal sphincter muscle (IAS), adjoining rectal tissue, liver, and brain were homogenized using an ULTRATURRAX™ tissue homogenizer (Tekamr, Cincinnati, Ohio) in a solution comprising 10 millimolar Tris-HCl, 150 millimolar KCl, and 25 millimolar MnCl2, at pH 7.4. The homogenates were dialyzed overnight against the same solution. Dialyzed homogenates were centrifuged to remove insoluble material and concentrated with Amicon CENTRICON™ 30 microconcentrators to yield stock protein preparations having protein concentrations of 2.4 milligrams per milliliter for IAS smooth muscle, 3.6 milligrams per milliliter for rectal smooth muscle, 3 milligrams per milliliter for brain, and 17.5 milligrams per milliliter for liver. Protein concentrations were estimated with the Pierce Coomassie Protein Reagent kit using bovine serum albumin as a standard.
(§2) Arginase activity in tissue homogenates was evaluated using the radioactive L-[guanidino^14C]arginine assay of Rüegg and Russell (1980, Anal. Biochem. 102:206-212). Assays were performed using a solution comprising 100 millimolar CHES-NaOH and 0.1 millimolar MnCl2 at pH 9.0. The reactions were initiated by addition of 5 microliters of tissue homogenate to 45 microliters of reaction mixture that contained the CHES buffer, the appropriate concentration of arginine (0.5 to 5 millimolar) and about 5.0×10^4 counts per minute of L-[guanidino-^14C]arginine. IAS, rectal muscle, and brain homogenates were incubated with the assay mixture at room temperature for one hour, and the liver sample was incubated for 5 minutes. The reactions were stopped by addition of 200 microliters of a stop solution containing 0.25 molar acetic acid, 7 molar urea, and 10 millimolar […] at pH 4.5. Arginase has essentially no activity at the low pH of the stop solution. [^14C] Urea was separated from non-reacted L-[guanidino-^14C]arginine by treatment with 200 μl of 1:1 v/v slurry of DOWEX™ 50W-X8 in water, and quantitated by adding 200 microliters of the supernatant from the DOWEX™ treatment to 3 milliliters of LIQUISCENT™ (National Diagnostics) for liquid scintillation counting in a Beckman LS 5000CE counter. The data were analyzed using double-reciprocal plots of the initial velocity measurements; standard errors were determined by regression analysis.
(§3) Assays in the presence of the inhibitors N^ω-hydroxy-L-arginine (1 to 100 micromolar) and ABHA (0.05 to 100 micromolar) were performed as described above. The amino acid D-ornithine served as a control in these experiments, since this amino acid, unlike L-omithine, is not an inhibitor of arginase.

Experiment [3] deals with penile corpus cavernosum smooth muscle. Kind of experiment: organ bath, NANC nerve-mediated relaxation of penile corpus cavernosum tissue strips. Further details: species or system rabbit. The text has this:
Penile cavernosal tissue strips were obtained from male New Zealand white rabbits (3.0-3.5 kilogram body weight) and mounted in organ bath preparations, as described (Kim et al., 1991, J. Clin. Invest. 88:112-118). Tissues strips at optimal isometric tension were contracted using 40 nanomolar endothelin-1 and subjected to electrical field stimulation (EFS), by means of two platinum plate electrodes positioned on either side of the tissue and a current amplifier in series with a square pulse stimulator. Each stimulation period lasted 20 seconds with trains of square waves having a pulse duration of 0.5 milliseconds and a potential difference of 10 volts. Frequency was varied from 1 to 10 Hertz. For all experiments, NANC responses were isolated in tissue strips by treatment with indomethacin to inhibit vasoactive prostanoid synthesis, 10 micromolar bretylium to inhibit adrenergic neurotransmission, and 1 micromolar atropine to block muscarinic acetylcholine receptors. All tissues were first subject to EFS in the absence of ABHA, and then stimulations were repeated in the presence of increasing concentrations (0.1 to 1.0 millimolar) ABHA following a 20 minute incubation period. […] Responses were further analyzed by determining the ratios of the responses in the presence and absence of ABHA treatment.

Experiment [4] addresses rectum arginase activity. The experiment is described as follows: arginase activity in rectum homogenate. The class given is biochemical, opossum.
From the text: as §1, §2, §3

Experiment [5] addresses T2, rat liver arginase (Rattus norvegicus, UniProt P07824).
T2 sequence (P07824 1-323): T1 sequence (P07824 1-323)
Kind of experiment: radioactive L-[guanidino-14C]arginine arginase assay (Example 3). Details: made in house. Particulars: [14C-guanidino]-L-arginine assay, low inhibitor concentrations, assuming competitive inhibition; read-out: Ki (apparent). The class given is biochemical. As to the method:
Assays were performed in 100 micromolar MnCl2, 100 millimolar CHES-NaOH (pH 9.0). The reactions were initiated by addition of 5 microliters of a circa 1 unit per milliliter enzyme solution to 45 microliters of reaction mixture containing CHES buffer, 1.4 millimolar L-arginine, about 5.0×10^4 counts per minute of L-[guanidino- ^14C]arginine, and variable concentrations of the appropriate inhibitor. After a 5-15 minute reaction time, 200 microliters of a stop solution containing 7 molar urea, 10 millimolar L-arginine, and 0.25 molar acetic acid (pH 4.5) was added to the reaction (arginase has essentially no activity under these conditions). [^14C]-Urea was separated from non-reacted L-[guanidino-^14 C]arginine by treatment with 200 microliters of a 1:1 (vol/vol) slurry of DOWEX™ 50 W-X8 in water, and quantitated by adding 200 microliters of the supernatant from the DOWEX™ treatment to 3 milliliters of LIQUISCINT™ (National Diagnostics) for liquid scintillation counting in a Beckman LS5000CE counter.

pIC50, pKd, pKi: −log10 of the molar value. “Also recorded” adds a separate entry of the source. Where only a bound is given, the exact number is not on record here.

As for `N[C@@H](CCCCB(O)O)C(=O)O` [compound 7, 2(S)-amino-6-boronohexanoic acid], the pKd in experiment [1] was ≥ 7.00. Also, the pKi in experiment [2] (arginine fixed at Km, assuming competitive inhibition, read-out: estimated Ki, liver arginase activity) was 6.72; in experiment [4] (arginine fixed at Km, assuming competitive inhibition, read-out: estimated Ki, rectum arginase activity), 7.59; in experiment [5], 7.00. For the same compound, in experiment [2] (liver homogenate), the “times more potent than L-HO-Arg, liver” value is given as 5 times. Further, the “potency against liver arginase activity relative to non-hepatic tissues” value in experiment [2] (liver versus IAS, rectum, brain) is reported as “more potent inhibitor of non-hepatic than hepatic arginase activities”. In addition, the pIC50 in experiment [2] (liver, read-out: IC50 for inhibition of arginase activity, liver homogenate) was 6.36; in experiment [4] (rectum, read-out: IC50 for inhibition of arginase activity, rectum homogenate) it was 7.30. In addition, in experiment [3] (0.1 to 1.0 millimolar ABHA, 1 to 10 Hertz), the “enhancement of relaxation in response to EFS” value was “significant enhancement; also recorded: significantly enhanced relaxation; also recorded: statistically significant”. Moreover, the “relaxation in the absence of electrical stimulation” value in experiment [3] (corpus cavernosum strips contracted with endothelin-1) is “moderate relaxation”. Besides, the “times more potent than L-HO-Arg, rectum” value in experiment [4] (rectum homogenate) is reported as 840 times.
